One substance from US11191811B2, “Osteocalcin as a treatment for frailty associated with aging” (THE TRUSTEES OF COLUMBIA UNIVERSITY IN THE CITY OF NEW YORK, priority 2014, dated 2021) can be followed below.

One experiment relates to Gprc6aMck−/− mice. The experiment in a line: Endurance exercise on treadmill until exhaustion. To be noted: Gprc6aMck−/− mice treated with Ocn. The format is in vivo, mouse. Here is the method:
First, whether a single intraperitoneal injection of uncarboxylated mouse osteocalcin (osteocalcin) (100 ng/g of body weight) immediately before exercise would improve the exercise capacity of 3 month-old WT mice was tested.
For exercise studies, all mice were trained before the tests to run on a treadmill (Harvard apparatus) for three days (10 minutes/day). The day of the test, mice were acclimated to the treadmill for 5 minutes followed by 10 minutes running at a constant speed of 17 cm/s, then a gradual increase in the speed up to 30 cm/s. Next, mice were run until exhaustion as defined by the number of times a mouse fell off to the electric grid during one minute (>15). Measurements of muscle strength were carried out using a grip strength meter (Columbus instruments). Values are expressed as the average of five single measurements, taken one minute apart from each other. For all biochemical and metabolic analyses performed, blood/tissues were collected and processed either at rest or at the end of a 40 min run (30 cm/s).

A further experiment relates to Osteocalcin−/− mice. The experiment in a line: Bronchoconstriction of Osteocalcin−/− mice, intracerebroventricular infusion. The format is in vivo, mouse. To be noted: intracerebroventricular infusions in Osteocalcin−/− mice.
For another experiment, the system named is Gprc6a−/− myotubes. The experiment in a line: Gene expression (qPCR) in myotubes treated with Ocn. The experiment is classed as cell-based, mouse. Here is the method: (§1) Serum osteocalcin, PINP, CTX, and insulin levels were measured using ELISA assays. Blood glucose level was measured using an Accu-Check glucometer. Urine 3-MHT was measured as previously described (Aranibar et al., 2011, Anal. Biochem. 410:84-91). Determination of cAMP accumulation was performed using a commercial kit (R&D). For gene expression, 1 μg of total RNA was reverse transcribed into cDNA. qPCR analyses were performed using a SYBER green master mix (Applied Biosciences) and a CFX-Connect real time PCR (Bio-Rad). Relative expression levels of each gene were normalized to that of Hprt or Gapdh. For in situ hybridization, muscle was frozen in liquid N2-cooled methylbutane. Samples were sectioned at 10 μm using a cryostat. In situ hybridization was performed with a DIG-labeled riboprobe as previously described (Oury et al., 2011, Cell 144:796-809).
Culture of skeletal muscle myoblasts from 7 day-old mice was performed as described (Gharaibeh et al., 2008, Nature Protocols 3:1501-1509). Myoblasts were differentiated into myotubes for 3-4 days in a medium containing 5% horse serum. Muscle fibers were isolated from flexor digitorum brevis muscle. Muscles were dissected with DMEM 2% collagenase for 2 hours at 37° C., in a 5% CO2 incubator. Muscle fibers were disaggregated from the tissue using a wide bore pipet and plated in matrigel-coated plates at approximately 50% confluence. […]

A further experiment deals with WT myotubes. The description is as above. The format is cell-based, mouse. Here is the method:
FIG. 28. Osteocalcin signaling in myofibers favors uptake and oxidation of fatty acids. (A-B) Acylcarnitine levels in muscles and plasma of Gprc6af/f and Gprc6aMck−/− mice, at rest and after a single bout of exercise (n=4-6 per group). (C) OCR in myofibers cultured in KHR buffer containing 3 mM oleic acid. (D) ATP accumulations in muscles of Gprc6af/f and Gprc6aMck−/− mice after a single bout of exercise (n=6 per group). (E) Western blot analysis of HSL phosphorylation (Ser563) in muscles of Gprc6af/f and Gprc6aMck−/− mice after a single bout of exercise. (F-G) Cd36, Fatp1 and Cpt1b expression in WT and Gprc6a−/− myotubes or WT myotubes treated with Ocn (10 ng/ml). (H) Fatp1 expression in muscles of Gprc6af/f; Gprc6aMck−/− and Ocn+/−; Gprc6aMck+/− mice, at rest and after a single bout of exercise (n=4-6 per group). (I) Western blot analysis of FATP1 in muscle of Gprc6af/f and Gprc6aMck−/− mice after exercise. (J) Cd36, Fatp1 and Cpt1b expression in muscles of Creb f/f and CrebMck−/− mice after a single bout of exercise. (K) Western blot analysis of CREB phosphorylation (Ser133) in muscles of Gprc6af/f and Gprc6aMck−/− mice after a single bout of exercise. (L) Performance during endurance exercise of 3 month-old Gprc6aMck+/−; CrebMck+/−, CrebMck+/− and control mice (n=8-13 per group).
as §1, with “In situ hybridization was performed with a DIG-labeled riboprobe as previously described (Oury et al., 2011, Cell 144:796-809).” left out

Regarding “uncarboxylated osteocalcin: Recombinant uncarboxylated mouse osteocalcin, bacterially produced, purified on glutathione beads and cleaved from the GST subunit by thrombin (YLGASVPSPDPLEPTREQCELNPACDELSDQYGLKTAYKRIYGITI)”, the muscle function entry with Gprc6aMck−/− mice is reported as “did not improve”. Further, the bronchoconstriction result with Osteocalcin−/− mice is “do not correct”. Besides, the “expression of Il6” value in the experiment on Gprc6a−/− myotubes is reported as “not”; in the experiment on WT myotubes, “increased”. In addition, the “expression of Cpt1b” value in the experiment with WT myotubes (Ocn 10 ng/ml) is on record as “increased”. For the same substance, in the experiment on WT myotubes (Ocn 10 ng/ml), the “expression of Fatp1” value is on record as “increased”.
